“Also recorded” adds a separate entry of the source.
How the values were obtained:
CLP mice = experiment: Plasma cytokine levels in CLP mice (Bio-Plex multiplex assay); type: in vivo
Description: (§1) The CLP study with 7-9 week old C57BL/6 or BALB/c males was conducted, at animal house facility at TheraIndx Lifesciences Pvt. Ltd. (Bangalore, India) and Institute of Life Sciences (Bhubaneswar, India) respectively, in accordance with ethical practices laid down in the CPCSEA guidelines for animal care and use (CPCSEA, 2003). The Institutional Animals Ethics Committee (IAEC) of the test facility approved the studies. The CLP was performed as described before (Rittirsch et al., 2009; Toscano et al., 2011). Sham control mice had undergone surgery with ceacal manipulations without ligation and puncture. About 500 μl saline was administered subcutaneously immediately after surgery. Tramadol (about 20 mg/kg) was injected subcutaneously for post-operative analgesia. BALB/c mice were injected with single IP close of about 500 μg GA132 (GA is the internal code which has been used by the inventors of the present invention) while C57BL/6 mice received single IP dose of about 300 μg or about 700 μg GA132 6 hours post CLP. A separate group of C57BL/6 mice received single IP dose of about 250 μg of 6-mer, 7-mer or 8-mer at either 6 hour or 24 hour post CLP. All groups except the CLP alone (control) received a single dose of standard antibiotics (amoxicillin and clavulanate) 6 hour post CLP. Control group was injected with saline solution. Total of 92 C57BL/6 and 18 BALB/c mice were used in the study.
The Mutiplex immunoassay for Human and Mouse IL-1b, IL-6, IL-10, TNF-α and MCP-1 were purchased from Bio-Rad. For human cytokines, 1×10^6 PBMCs were seeded in 24 well plate a day before and treated with 100 ng/ml LPS or 50 μg/ml GA132 for 24 hours. The culture supernatant from three independent biological replicates was collected and used for the assay without dilution. For mice cytokines, the plasma samples from mice were collected 6 or 48 hours post treatment and diluted in PBS (Phosphate Buffered Saline) in 1:2 before assay. The assay was performed as per manufacturers' method and the beads were read and analyzed in Bio-Plex® MAGRIX™ Multiplex Reader (Bio-Rad) (https://www.bio-rad.com/webroot/web/pdg/lsr/literature/10014905.pdf).

[1] = tested on: CLP model of sepsis in mice; experiment: CLP study, survival of mice treated with chito-oligomers; type: in vivo
Description: as §1, with “Sham control mice had undergone surgery with ceacal manipulations without ligation and puncture.” left out, “BALB/c mice were injected with single IP close of about 500 μg GA132 (GA is the internal code which has been used by the inventors of the present invention) while C57BL/6 mice received single IP dose of about 300 μg or about 700 μg GA132 6 hours post CLP.” left out
Experimental data were analyzed using GraphPad Prism 8 (GraphPad Software, Inc.). Kruskal-Wallis test and one way ANOVA test was used for analysis of cytokines and reporter assay values. Log-rank (Mantel-Cox) test was utilized for survival analysis. P-values, P<0.05 were considered statistically significant and are denoted by […] if calculated P-values were lower than P=0.05.

TLR2 [2] = target: T1, TLR2 (Homo sapiens, UniProt O60603); experiment: HEK-Blue TLR2 reporter assay (NF-kb and AP-1 driven SEAP); type: cell-based; set-up: host or cells: HEK293 (HEK-Blue TLR2 reporter cells)
Source text: (§2) P1 fraction tested on reporter cell lines where TLR2, TLR4 or TLR3 is expressed in HEK293 cells and activation of the receptors is observed by NP-kB and AP-1 promoter driven SEAP enzyme secretion.
(§3) HEK-Blue TLR2, HEK-Blue TLR3 and HEK-Blue TLR4 reporter cells expressing SEAP (secreted embryonic alkaline phosphatase) enzyme under NF-kb and AP-1 promoter (Cat. no.# hkb-htlr2, hkb-htlr3 and hkb-htlr4) were purchased from InvivoGen (USA). Human Peripheral blood mononuclear cells (PBMCs) (Cat. no.# CL003-25) were purchased from Himedia laboratories (India). HEK based cells and PBMCs were cultured DMEM and RPMI media, respectively. The cells were maintained at 37° C. incubator with 5% CO2. The culture media was supplemented with 10% Fetal Calf Serum (Gibco) along with standard antibiotics. HEK-Blue selection antibiotics (InvivoGen, Cat. no.# hb-sel, ant-zn and ant-bl) were added as per manufacturers' instructions.
(§4) 2×10^4 HEK-Blue reporter cells were seeded, in each well of a 96 well plate, in HEK-Blue detection media (InvivoGen, Cat. no.# hb-det3) along with the 50 μg/ml of the chito-oligomers. […] The treated cells were incubated at about 37° C. for about 16 hours and absorbance (O.D.) was measured at 620 nm in either TECAN Infinite® 200 PRO or Thermo Scientific Varioskan LUX multimode reader.
Target sequence in this assay (O60603 21-784): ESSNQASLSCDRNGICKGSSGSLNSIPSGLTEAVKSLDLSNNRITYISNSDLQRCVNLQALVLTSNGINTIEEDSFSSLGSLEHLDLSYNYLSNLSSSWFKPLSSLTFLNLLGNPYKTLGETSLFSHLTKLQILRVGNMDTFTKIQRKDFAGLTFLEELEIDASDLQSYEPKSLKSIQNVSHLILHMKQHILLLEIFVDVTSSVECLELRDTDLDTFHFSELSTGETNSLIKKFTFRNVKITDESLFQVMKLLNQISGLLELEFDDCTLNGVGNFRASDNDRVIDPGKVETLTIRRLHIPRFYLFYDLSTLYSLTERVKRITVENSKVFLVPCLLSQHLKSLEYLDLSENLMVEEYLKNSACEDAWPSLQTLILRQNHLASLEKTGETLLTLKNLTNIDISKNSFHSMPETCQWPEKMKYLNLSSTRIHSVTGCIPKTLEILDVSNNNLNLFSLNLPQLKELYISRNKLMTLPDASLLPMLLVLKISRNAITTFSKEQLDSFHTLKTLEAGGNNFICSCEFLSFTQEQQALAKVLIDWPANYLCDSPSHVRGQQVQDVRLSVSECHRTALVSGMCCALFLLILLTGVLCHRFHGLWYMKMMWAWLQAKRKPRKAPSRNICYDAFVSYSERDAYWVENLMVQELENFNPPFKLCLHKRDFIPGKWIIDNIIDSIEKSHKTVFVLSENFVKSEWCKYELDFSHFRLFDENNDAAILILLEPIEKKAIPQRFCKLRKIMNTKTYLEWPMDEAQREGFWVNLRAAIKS

TLR2 [3] = target: T1, TLR2; conditions: Das et al., 2019; cited from earlier work
Target sequence in this assay (O60603 21-784, species assumed): as the sequence (O60603 21-784) above

[4] = tested on: septic mice in endotoxemia model; experiment: Survival in endotoxemia model (LPS injection), native protein; type: in vivo; conditions: treated 6 hours post LPS injection, up to ten days, group G2
Description: In this model, post LPS Injection (i.e., 6 hours) animals were treated with vehicle and test agents amongst different groups G1-G5 as specified in figure. G2 (LPS+DIA-1) was treated with the P1 protein while G3 and G4 were other test protein used as experimental controls.

TLR4 = target: T2, TLR4 (Homo sapiens, UniProt O00206); experiment: HEK-Blue TLR4 reporter assay (NF-kb and AP-1 driven SEAP); type: cell-based; conditions: P1 fraction, HEK293 reporter cells, FIG. 7
T2 construct: host or cells: HEK293 (HEK-Blue TLR4 reporter cells)
Source text: as §2, §3, §4

IL-18 = conditions: monocytes, in vitro, FIG. 8
Source text: Increased levels of IL-18 have also been associated with higher mortality in sepsis. In endotoxemia mice models IL-18 knockout mice show better survival than the wild type indicating a role of IL18 in disease severity (Berghe T V, 2014 Eidt M V, 2016).

THP-1 cells = THP-1 cells treated with P1 and Pp, cytokine secretion; type: cell-based, human
Description: THP-1 cells (human acute monocytic leukemia cell line) were procured from ATCC (Cat. No# ATCC® TIB-202™). The THP-1 cells were treated with the P1 and Pp to check for any pro-inflammatory activity.

TLR3 = TLR3 (Homo sapiens, UniProt O15455); conditions: P1 fraction, HEK293 reporter cells, FIG. 7
Source text: as §2, §3, §4

[5] = tested on: septic mice in the CLP model (polymicrobial sepsis); experiment: Survival of septic mice in CLP model, native protein; type: in vivo
Description: About 80% of mice that received 15-35 μg of protein and about 60% mice that received 1-20 μg of protein survived even up to 16 days. More preferably, 80% of mice that received 25 μg of protein and 60% mice that received 10 μg of protein survived even up to 16 days. All the mice in the control group had died in the same duration.

[6] = tested on: mice in endotoxemia model; conditions: Panda et al., 2012; cited from earlier work
[7] = CLP mice, 48 hours, versus untreated group, FIG. 5D
[8] = individual CLP mice, 6 hours versus 48 hours post treatment

T2 sequence (O00206 24-839): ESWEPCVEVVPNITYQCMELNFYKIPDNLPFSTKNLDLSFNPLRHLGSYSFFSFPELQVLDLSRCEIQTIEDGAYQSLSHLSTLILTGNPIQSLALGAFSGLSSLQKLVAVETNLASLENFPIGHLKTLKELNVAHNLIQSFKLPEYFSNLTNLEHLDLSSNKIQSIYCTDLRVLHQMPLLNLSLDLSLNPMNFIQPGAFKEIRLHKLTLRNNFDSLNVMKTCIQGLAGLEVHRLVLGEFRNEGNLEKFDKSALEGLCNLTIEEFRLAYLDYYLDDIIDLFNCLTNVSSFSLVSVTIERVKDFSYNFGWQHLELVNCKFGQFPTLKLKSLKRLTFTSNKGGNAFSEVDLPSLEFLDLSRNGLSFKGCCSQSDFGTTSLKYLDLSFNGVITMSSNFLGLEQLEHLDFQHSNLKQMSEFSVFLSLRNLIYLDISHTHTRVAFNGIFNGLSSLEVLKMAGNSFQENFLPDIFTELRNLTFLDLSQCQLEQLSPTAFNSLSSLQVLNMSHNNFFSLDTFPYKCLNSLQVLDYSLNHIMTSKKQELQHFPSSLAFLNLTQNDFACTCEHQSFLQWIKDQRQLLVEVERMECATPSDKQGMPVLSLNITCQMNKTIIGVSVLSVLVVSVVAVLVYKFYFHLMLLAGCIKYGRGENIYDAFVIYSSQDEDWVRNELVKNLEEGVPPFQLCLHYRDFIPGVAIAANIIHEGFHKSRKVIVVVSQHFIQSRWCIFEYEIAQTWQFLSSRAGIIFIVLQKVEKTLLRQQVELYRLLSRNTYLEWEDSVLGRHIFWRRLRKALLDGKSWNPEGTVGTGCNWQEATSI
T2 sequence (Q9Y6Y9 17-160 partner limits assumed): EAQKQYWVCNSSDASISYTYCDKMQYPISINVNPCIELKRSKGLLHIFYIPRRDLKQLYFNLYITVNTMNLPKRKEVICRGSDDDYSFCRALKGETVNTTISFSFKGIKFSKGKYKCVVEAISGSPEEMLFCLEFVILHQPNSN

Compound: CC(=O)N[C@H]1[C@H](O[C@H]2[C@H](O)[C@@H](NC(C)=O)[C@H](O[C@H]3[C@H](O)[C@@H](NC(C)=O)[C@H](O[C@H]4[C@H](O)[C@@H](NC(C)=O)C(O)O[C@@H]4CO)O[C@@H]3CO)O[C@@H]2CO)O[C@H](CO)[C@@H](O[C@@H]2O[C@H](CO)[C@@H](O[C@@H]3O[C@H](CO)[C@@H](O[C@@H]4O[C@H](CO)[C@@H](O)[C@H](O)[C@H]4NC(C)=O)[C@H](O)[C@H]3NC(C)=O)[C@H](O)[C@H]2NC(C)=O)[C@@H]1O (stereo partly shown) [7-mer, Hepta-N-acetyl Chitoheptaose]
- plasma IL-6 levels (CLP mice; CLP mice, 6 hours post intervention, versus untreated, FIG. 5C): significant decrease
- plasma IL-1b (CLP mice; [7]): significant reduction
- plasma IL-10 (CLP mice; [7]): significant reduction
- plasma MCP-1 (CLP mice; [7]): significant reduction
- plasma TNF-α (CLP mice; [7]): significant reduction
- levels of IL-1b over time (CLP mice; [8]): significant reduction
- levels of MCP-1 over time (CLP mice; [8]): significant reduction
- levels of TNF-α over time (CLP mice; [8]): significant reduction
- survival over 7 days ([1]; C57BL/6 CLP mice, intervention at 6 hours post-surgery, about 250 μg single IP dose with antibiotics, FIG. 5A): around 90%
- survival up to 7 days ([1]; C57BL/6 CLP mice, single dose at 24 hours post-surgery, FIG. 5B): 80%
- mortality ([1]; single dose of 200-250 μg 6 hours and 24 hours post-CLP, till day 7, FIG. 4): significant mortality reduction
- activity in TLR2 reporter cells compared between oligomers (TLR2 [2]; HEK-Blue TLR2 reporter cells, 50 μg/ml): significantly higher than 8-mer

Compound: CC(=O)N[C@H]1[C@H](OC2CCCCC2)O[C@H](CO)[C@@H](O[C@@H]2O[C@H](CO)[C@@H](O)[C@H](O)[C@H]2NC(C)=O)[C@@H]1O [AVR-25]
- binding affinity to TLR2 (TLR2 [3]): did not show any binding affinity

Compound: P1: Major G75 size exclusion peak of AgW from Setaria digitata, a pure glycoprotein identified as Heat Shock Protein 70 (SEQ. ID NO. 1)
- survival [4]: 66%
- activation of TLR4 (SEAP secretion) (TLR4): activates; also recorded: consistently activating
- reduction in IL-18 transcript levels (IL-18): more than 60%
- alternate activation marker CLEC10A or CD301 (THP-1 cells; THP-1 cells): reduces
- secretion of pro-inflammatory cytokines (THP-1 cells; THP-1 cells, FIG. 1B): highly active
- secretion of IL-1b (THP-1 cells; THP-1 cells, FIG. 1C): promote secretion
- secretion of IL-6 (THP-1 cells; THP-1 cells, FIG. 1C): promote secretion
- secretion of IL-10 (THP-1 cells; THP-1 cells, FIG. 1C): promote secretion
- secretion of MCP-1 (THP-1 cells; THP-1 cells, FIG. 1C): promote secretion
- secretion of TNF-α (THP-1 cells; THP-1 cells, FIG. 1C): promote secretion
- induction of cytokines (THP-1 cells; THP-1 monocytic cells, FIG. 1C): activated the THP-1 monocytic cells
- activation of TLR2 (SEAP secretion) (TLR2 [2]; P1 fraction, HEK293 reporter cells, FIG. 7): activates; also recorded: consistently activating
- activation of TLR3 (SEAP secretion) (TLR3): no activation
- mice survived up to 16 days ([5]; 10 μg of protein): 60%
- mice survived up to 16 days ([5]; 25 μg of protein): 80%
- mice survived up to 16 days ([5]; 1-20 μg of protein): about 60%
- mice survived up to 16 days ([5]; 15-35 μg of protein): About 80%

Compound: chitohexaose [CHTX]
- protection of mice [6]: protect mice

Source: US20230105103A1, “THERAPEUTIC MOLECULES FOR COMBATING SEPSIS” (CENTRE FOR CELLULAR AND MOLECULAR PLATFORMS, priority 2019, published 2023)
